Assay results from US4588720A, “Imidazo[1,2-a]pyrimidines” (Roussel Uclaf, priority 1982, dated 1986).

Assays:
[1] = biological target: benzodiazepine receptors; test: Affinity for benzodiazepine receptors ([3H] flunitrazepam radioreceptor binding); settings: inhibition of specific binding of 0.6 nM [^3 H] flunitrazepam, rat forebrain membrane preparations; read-out: Receptor Binding (IC50 nM)
Description: A. Affinity for benzodiazepine receptors
The affinity of the compounds for benzodiazepine receptors was assessed using the radioligand [^3 H] flunitrazepam and modifications of the original radioreceptor binding method of Squares and Braestrup (Nature, Vol. 266 (1977) p. 732). The values given in Table VI are nanomolar concentrations of test compound which inhibited the specific binding of 0.6 nM[^3 H] flunitrazepam to rat forebrain membrain preparations by 50% (IC50 nM).

[2] = Anxiolytic activity, Geller conflict method (Geller and Seifter); format: in vivo; settings: po; modified Geller and Seifter conflict method; read-out: Geller Conflict (MED mg/kg po), minimum effective dose at which there was an observed increase in shocks above control
Description: Screening for anxiolytic activity was carried out by modifications of the conflict method of Geller and Seifter (Psychopharmacologia, (1960), Volume I, p. 482). The values given in Table VI are the minimum effective doses at which there was an observed increase in shocks above control (MED me/kg po).

Question: For `C=CCc1c(OC)nc2nc(C(=O)c3ccccc3)cn2c1CCC` [Example 37, [6-Allyl-7-methoxy-5-n-propylimidazo[1,2-a]pyrimidin-2-yl]phenylmethanone], which IC50 [1] is on record?
Answer: 135 nM

Question: And the minimal effective dose [2]?
Answer: 50 mg/kg

Question: Which IC50 [1] does the source give for `CCc1cn2cc(C(=O)c3ccccc3)nc2nc1OC` [Example 38, [6-Ethyl-7-methoxyimidazo[1,2-a]pyrimidin-2-yl]phenylmethanone] here?
Answer: 1500 nM

Question: What about the minimal effective dose [2] of the same compound?
Answer: 5 mg/kg

Question: For `CCCCc1c(C)c(OC)nc2nc(C(=O)c3ccccc3)cn12` [Example 39, [5-n-Butyl-7-methoxy-6-methylimidazo[1,2-a]pyrimidin-2-yl]phenylmethanone], which IC50 [1] is on record?
Answer: 400 nM

Question: What about the minimal effective dose [2] of the same compound?
Answer: 50 mg/kg

Question: For `CCCc1cn2cc(C(=O)c3ccccc3)nc2nc1OC` [Example 40, [7-Methoxy-6-n-propylimidazo[1,2-a]pyrimidin-2-yl]phenylmethanone], which IC50 [1] is on record?
Answer: 1900 nM

Question: And the minimal effective dose [2]?
Answer: 50 mg/kg

Question: With `CCCCc1cn2cc(C(=O)c3ccccc3)nc2nc1OC` [Example 41, [6-n-Butyl-7-methoxyimidazo[1,2-a]pyrimidin-2-yl]phenylmethanone] as the compound, how does the IC50 [1] read?
Answer: 300 nM

Question: And the minimal effective dose [2]?
Answer: 50 mg/kg

Question: Which results are given for `COc1nc2nc(C(=O)c3ccccc3)cn2cc1C` [Example 42, [7-Methoxy-6-methylimidazo[1,2-a]pyrimidin-2-yl]phenylmethanone]?
Answer: IC50 [1]: 5900 nM; minimal effective dose [2]: 50 mg/kg

Question: What does the source list for `CCCCc1cc(OC)nc2nc(C(=O)c3ccccc3)cn12` [Example 43, [5-n-Butyl-7-methoxyimidazo[1,2-a]pyrimidin-2-yl]phenylmethanone]?
Answer: IC50 [1]: 340 nM; minimal effective dose [2]: 10 mg/kg

Question: Which IC50 [1] does the source give for `C=CCc1c(OC)nc2nc(C(=O)c3ccccc3)cn2c1CC` [Example 44, [6-Allyl-5-ethyl-7-methoxyimidazo[1,2-a]pyrimidin-2-yl]phenylmethanone] here?
Answer: 42 nM

Question: And the minimal effective dose [2]?
Answer: 10 mg/kg

Question: For `CCCCc1c(CC)c(OC)nc2nc(C(=O)c3ccccc3)cn12` [Example 45, [5-n-Butyl-6-ethyl-7-methoxyimidazo[1,2-a]pyrimidin-2-yl]phenylmethanone], which IC50 [1] is on record?
Answer: 500 nM

Question: And the minimal effective dose [2]?
Answer: 50 mg/kg

Question: With `CCCCc1c(CCC)c(OC)nc2nc(C(=O)c3ccccc3)cn12` [Example 46, [5-n-Butyl-7-methoxy-6-n-propylimidazo[1,2-a]pyrimidin-2-yl]phenylmethanone] as the compound, how does the IC50 [1] read?
Answer: 1200 nM

Question: And the minimal effective dose [2]?
Answer: 20 mg/kg

Question: Which IC50 [1] does the source give for `CCCCCc1c(OC)nc2nc(C(=O)c3ccccc3)cn2c1C` [Example 47, [7-Methoxy-5-methyl-6-n-pentylimidazo[1,2-a]pyrimidin-2-yl]phenylmethanone] here?
Answer: 107 nM

Question: What about the minimal effective dose [2] of the same compound?
Answer: 20 mg/kg

Question: With `COc1nc2nc(C(=O)c3ccccc3)cn2c(C)c1CC(C)C` [Example 48, [6-iso-Butyl-7-methoxy-5-methylimidazo[1,2-a]pyrimidin-2-yl]phenylmethanone] as the compound, how does the IC50 [1] read?
Answer: 400 nM

Question: And the minimal effective dose [2]?
Answer: 20 mg/kg

Question: With `CCc1c(SC)nc2nc(C(=O)c3ccccc3)cn2c1C` [Example 49, [6-ethyl-5-methyl-7-(methylthio)imidazo[1,2-a]pyrimidin-2-yl]phenylmethanone] as the compound, how does the IC50 [1] read?
Answer: 12 nM

Question: And the minimal effective dose [2]?
Answer: 2 mg/kg

Question: For `CCc1c(OC)nc2nc(C(=O)c3ccc(OC)cc3)cn2c1C` [Example 54, (6-Ethyl-7-methoxy-5-methylimidazo[1,2-a]pyrimidin-2-yl)(4-methoxyphenyl)methanone], which IC50 [1] is on record?
Answer: 59 nM

Question: And the minimal effective dose [2]?
Answer: 10 mg/kg

Question: What does the source list for `CCc1c(OC)nc2nc(C(=O)c3ccc(Cl)cc3)cn2c1C` [Example 55, (6-ethyl 7-methoxy 5-methylimidazo/1,2-a/pyrimidin-2-yl)(4-chlorophenyl)methanone]?
Answer: IC50 [1]: 85 nM; minimal effective dose [2]: 50 mg/kg

Question: With `CCc1c(OC)nc2nc(C(=O)c3ccc(C)cc3)cn2c1C` [Example 56, (6-ethyl 7-methoxy 5-methylimidazo/1,2-a/pyrimidin-2-yl)(4-methylphenyl)methanone] as the compound, how does the IC50 [1] read?
Answer: 68 nM

Question: What about the minimal effective dose [2] of the same compound?
Answer: 50 mg/kg

Question: With `CCc1c(OC)nc2nc(C(=O)c3ccccc3Cl)cn2c1C` [Example 57, (6-ethyl 7-methoxy 5-methylimidazo/1,2-a/pyrimidin-2-yl)(2-chlorophenyl)methanone] as the compound, how does the IC50 [1] read?
Answer: 100 nM

Question: What about the minimal effective dose [2] of the same compound?
Answer: 50 mg/kg

Question: Which results are given for `CCc1c(OC)nc2nc(C(=O)c3cccc(OC)c3)cn2c1C` [Example 58, (6-ethyl 7-methoxy 5-methylimidazo/1,2-a/pyrimidin-2-yl)(3-methoxyphenyl)methanone]?
Answer: IC50 [1]: 500 nM; minimal effective dose [2]: 50 mg/kg

Question: What does the source list for `CCc1c(OC)nc2nc(C(=O)c3ccc(SC)cc3)cn2c1C` [Example 59, (6-ethyl 7-methoxy 5-methylimidazo/1,2-a/pyrimidin-2-yl)(4-methylthiophenyl)methanone]?
Answer: IC50 [1]: 300 nM; minimal effective dose [2]: 50 mg/kg
